From patent US20070167492A1, “Molluscicidal agents” (priority 2003, published 2007)

Columns and labels:
[1] = tested on: Winter wheat (Kampa race) seeds; experiment: Seed germination test of treated winter wheat seeds (rolled in paper); type: in vivo; conditions: 3x50 seeds, 6 days at 22° C.
Experimental: (§1) Winter wheat (Kampa race; thousand grain weight of 51 grams) was used in an experiment to test the efficacy of the compositions of the present inventions in relation to known molluscicidal compounds. The seeds were disinfected for soil and germ moulds with 2 ml of Beret Gold (comprising 25 g/l of the fungicide fludioxonil) per kg of seed.
(§2) Sepiret® was added to all dry disinfections, and is the coating that was added to all agents of which the formulation was not suitable for coating.
Table 2 provides an overview of the amounts of diluent water and Sepiret® used for treating the wheat seeds. Table 2 further provides the quality of the coating and the percentages of germinating seeds in a seed germination test. In this test, the percentage of germination of 3×50 seeds, rolled in paper, was determined after 6 days at 22° C. (continuously) and a 16 hours light regime.

[2] = tested on: Deroceras reticulatum (grey field slug); experiment: Example 1: pot test, treated winter wheat seed with 5 adult slugs per pot, 14 days; type: in vivo
Experimental: as §1, §2
The seeds were sown in earthenware pots with an internal diameter of 20 cm and a height of 18 cm, filled with 7 cm of potting soil (Trio BV, Weesp, The Netherlands) and with a top 2 cm of white quartz sand. A total of 40 seeds was placed in each pot, in a pattern of concentric circles on top of the quartz sand, the germ facing upwards. To each pot a total of 5 adult specimens of the test slug Deroceras reticulatum (grey field slug) were added. The pots were incubated at ±15° C. with a relative humidity of ±90% and light regime of ±12 hours light/12 hours dark, without artificial lighting. The pots were not irrigated overhead. In total, 4 parallel tests were performed for each test.
Following the addition of the slugs, the number of damaged seeds was counted after 2, 3, 7, 10 and 14 days. The number of plants present (germinated and not eaten or damaged by the slugs) was determined 3, 7, 10 and 14 days after the start of the test. […] The number of dead slugs was counted 2, 3, 7, 10 and 14 days after the start of the test (but not removed). Finally, on days 3, 7, 10 and 14 after the start of the test, the number fecal pellets was counted.
The data were statistically analysed by using F-tests (α=0.05) and pair-wise Student-tests.

[3] = 2 ml formulated per kg seed, 2 days after sowing
[4] = 2 ml formulated per kg seed, 3 days after sowing
[5] = 2 ml formulated per kg seed, 7 days after sowing
[6] = 2 ml formulated per kg seed, 10 days after sowing
[7] = 2 ml formulated per kg seed, 14 days after sowing
[8] = 4 ml formulated per kg seed, 2 days after sowing
[9] = 4 ml formulated per kg seed, 3 days after sowing
[10] = 4 ml formulated per kg seed, 7 days after sowing
[11] = 4 ml formulated per kg seed, 10 days after sowing
[12] = 4 ml formulated per kg seed, 14 days after sowing
[13] = 8 ml formulated per kg seed, 2 days after sowing
[14] = 8 ml formulated per kg seed, 3 days after sowing
[15] = 8 ml formulated per kg seed, 7 days after sowing
[16] = 8 ml formulated per kg seed, 10 days after sowing
[17] = 8 ml formulated per kg seed, 14 days after sowing
[18] = 23 ml formulated per kg seed, 2 days after sowing
[19] = 23 ml formulated per kg seed, 3 days after sowing
[20] = 23 ml formulated per kg seed, 7 days after sowing
[21] = 23 ml formulated per kg seed, 10 days after sowing
[22] = 23 ml formulated per kg seed, 14 days after sowing

SMILES: CN1COCN(Cc2cnc(Cl)s2)/C1=N\[N+](=O)[O-] [thiamethoxam]
- Percentage germinated ([1]; 2 ml formulated per kg seed): 88%
- Percentage germinated ([1]; 4 ml formulated per kg seed): 78%
- Percentage germinated ([1]; 8 ml formulated per kg seed): 61%
- Percentage germinated ([1]; 23 ml formulated per kg seed): 73%
- number of utilizable plants after 14 days ([2]; 2 ml formulated per kg seed): 0.3
- percentage of damaged seeds after 14 days ([2]; 2 ml formulated per kg seed): 97%
- Mean number of damaged seeds per pot [2, 3]: 5.0
- Mean number of dead slugs per pot [2, 3]: 0
- Mean number fecal pellets per pot [2, 4]: 42
- Mean number of damaged seeds per pot [2, 4]: 18.0
- Mean number of dead slugs per pot [2, 4]: 0
- Mean number of plants present per pot [2, 4]: 7.3
- Mean number fecal pellets per pot [2, 5]: 107
- Mean number of damaged seeds per pot [2, 5]: 37.3
- Mean number of dead slugs per pot [2, 5]: 0
- Mean number of plants present per pot [2, 5]: 0.3
- Mean number fecal pellets per pot [2, 6]: 158
- Mean number of damaged seeds per pot [2, 6]: 39.0
- Mean number of dead slugs per pot [2, 6]: 0
- Mean number of plants present per pot [2, 6]: 0.3
- Mean number fecal pellets per pot [2, 7]: 144
- Mean number of damaged seeds per pot [2, 7]: 38.8
- Mean number of dead slugs per pot [2, 7]: 0
- Mean number of plants present per pot [2, 7]: 0.3
- number of utilizable plants after 14 days ([2]; 4 ml formulated per kg seed): 0
- percentage of damaged seeds after 14 days ([2]; 4 ml formulated per kg seed): 98%
- Mean number of damaged seeds per pot [2, 8]: 1.8
- Mean number of dead slugs per pot [2, 8]: 0
- Mean number fecal pellets per pot [2, 9]: 30
- Mean number of damaged seeds per pot [2, 9]: 15.5
- Mean number of dead slugs per pot [2, 9]: 0
- Mean number of plants present per pot [2, 9]: 6.0
- Mean number fecal pellets per pot [2, 10]: 115
- Mean number of damaged seeds per pot [2, 10]: 37.0
- Mean number of dead slugs per pot [2, 10]: 0
- Mean number of plants present per pot [2, 10]: 0.3
- Mean number fecal pellets per pot [2, 11]: 126
- Mean number of damaged seeds per pot [2, 11]: 36.5
- Mean number of dead slugs per pot [2, 11]: 0.3
- Mean number of plants present per pot [2, 11]: 0
- Mean number fecal pellets per pot [2, 12]: 133
- Mean number of damaged seeds per pot [2, 12]: 39.0
- Mean number of dead slugs per pot [2, 12]: 0.5
- Mean number of plants present per pot [2, 12]: 0
- number of utilizable plants after 14 days ([2]; 8 ml formulated per kg seed): 3.8
- percentage of damaged seeds after 14 days ([2]; 8 ml formulated per kg seed): 84%
- Mean number of damaged seeds per pot [2, 13]: 2.0
- Mean number of dead slugs per pot [2, 13]: 0
- Mean number fecal pellets per pot [2, 14]: 33
- Mean number of damaged seeds per pot [2, 14]: 10.3
- Mean number of dead slugs per pot [2, 14]: 0
- Mean number of plants present per pot [2, 14]: 5.5
- Mean number fecal pellets per pot [2, 15]: 85
- Mean number of damaged seeds per pot [2, 15]: 29.8
- Mean number of dead slugs per pot [2, 15]: 0
- Mean number of plants present per pot [2, 15]: 5.3
- Mean number fecal pellets per pot [2, 16]: 108
- Mean number of damaged seeds per pot [2, 16]: 30.8
- Mean number of dead slugs per pot [2, 16]: 0
- Mean number of plants present per pot [2, 16]: 5.5
- Mean number fecal pellets per pot [2, 17]: 112
- Mean number of damaged seeds per pot [2, 17]: 33.8
- Mean number of dead slugs per pot [2, 17]: 0.3
- Mean number of plants present per pot [2, 17]: 5.5
- number of utilizable plants after 14 days ([2]; 23 ml formulated per kg seed): 2.5
- percentage of damaged seeds after 14 days ([2]; 23 ml formulated per kg seed): 79%
- Mean number of damaged seeds per pot [2, 18]: 0.5
- Mean number of dead slugs per pot [2, 18]: 0
- Mean number fecal pellets per pot [2, 19]: 20
- Mean number of damaged seeds per pot [2, 19]: 8.5
- Mean number of dead slugs per pot [2, 19]: 0.3
- Mean number of plants present per pot [2, 19]: 6.8
- Mean number fecal pellets per pot [2, 20]: 91
- Mean number of damaged seeds per pot [2, 20]: 29.8
- Mean number of dead slugs per pot [2, 20]: 0.3
- Mean number of plants present per pot [2, 20]: 6.3
- Mean number fecal pellets per pot [2, 21]: 122
- Mean number of damaged seeds per pot [2, 21]: 30.0
- Mean number of dead slugs per pot [2, 21]: 0.8
- Mean number of plants present per pot [2, 21]: 7.0
- Mean number fecal pellets per pot [2, 22]: 131
- Mean number of damaged seeds per pot [2, 22]: 31.5
- Mean number of dead slugs per pot [2, 22]: 0.8
- Mean number of plants present per pot [2, 22]: 5.8
- differences in the number of damaged seeds ([2]; Example 1, dosages tested): did not result in significant differences
- protection / slug controlling effect (conclusion) ([2]; Example 1, winter wheat seed treatment, dosages tested): no sufficient protection to the plants
